These results are taken from US20250108036A1, “COMPOSITIONS FOR REMOVING SENESCENT CELLS AND USES THEREOF” (LIFECEUTIX CO., LTD., priority 2021, published 2025).

Molecules are shown by their SMILES.

What all share (format): cell-based, human
Test [1] deals with foreskin cells in which senescence was induced by doxorubicin. Nature of the test: CellTiter-Glo cell viability of doxorubicin-induced senescent foreskin cells (Examples 1-2, 10, 11, 13; Tables 4, 63, 65). As to conditions: doxorubicin-induced senescent foreskin cells, CellTiter-Glo, 0 μM = 100; for viability at 1.1 µM: 1.1 μM test compound; for viability at 10 µM: 10 μM test compound; for viability at 30 µM: 30 μM test compound; for viability at 90 µM: 90 μM test compound. (In general: In ATP-based viability assays light output follows the ATP content of the culture.)
Procedure: After 3 days, cell viability was measured using CellTiter-Glo Luminescent Cell Viability Assay (Promega) or light microscopy.

Test [2] has as its system HMGN1. Nature of the test: HMGN1 ELISA in culture medium of foreskin cells (Examples 10, 11; Tables 62, 63, 64). As to conditions: Homo sapiens, doxorubicin-treated foreskin cells, DMSO = 100; for activity at 30 µM: 30 μM test compound, read-out: HMGN1; for activity at 90 µM: 90 μM test compound.
Test [3] has as its system HMGN1. Nature of the test: HMGN1 ELISA in culture medium of A549 cancer cells (Example 12, Table 66). As to conditions: Homo sapiens, A549, doxorubicin-induced senescent A549 cells, ELISA, DMSO = 100, read-out: HMGN1 (amount of HMGN1 secreted in the cell culture); for activity at 30 µM: test compound 30 μM; for activity at 90 µM: test compound 90 μM. In general terms: ELISA stands for enzyme-linked immunosorbent assay.

The test system of a further test is A549. Nature of the test: CellTiter-Glo cell viability of senescent A549 cancer cells (Example 12, Table 67). As to conditions: Homo sapiens, A549, doxorubicin-induced senescent A549 cancer cells, CellTiter-Glo, read-out: Survival (%); for viability at 1.1 µM: 1.1 μM test compound; for viability at 10 µM: 10 μM test compound; for viability at 30 µM: 30 μM test compound; for viability at 90 µM: 90 μM test compound.

[4] abbreviates: Homo sapiens, 72 h, read-out: Survival (%).
The mark [5] stands for this setting: Homo sapiens, 72 h, […] test compound, read-out: Survival (%).

In the case of `C[C@H](N)C(=O)N1C[C@H](CCCB(O)O)[C@](N)(C(=O)O)C1` [LX-3107], in test [1] (setting [4]), the viability at 1.1 µM is 87.7%, the viability at 10 µM came to 74.2% and the viability at 30 µM was 33.4%. Moreover, the viability at […] in test [1] (setting [5]) was found to be 83.4%. Besides, the activity at 30 µM with HMGN1 [2] was found to be 196%. In addition, in the test with HMGN1 [3], the activity at 30 µM was 267%. In the test on A549, the viability at 1.1 µM worked out at 96.5%, the viability at 10 µM came out at 77.8% and the viability at 30 µM was 4.4%.

Take `O=C(NCc1ccncc1)C12CC3CC(C1)CC(c1ccc(Cl)cc1)(C3)C2` [LX-3106, Opaganib, reference compound]: in test [1] (setting [4]), the viability at 1.1 µM was found to be 97.7%, the viability at 10 µM is 82.5%, the viability at 30 µM came to 59.7% and the viability at 90 µM stood at 9.8%. Besides, the viability at […] in test [1] (setting [5]) was 87.4%. In addition, in the test on HMGN1 [2], the activity at 90 µM stood at 254%. In the test with HMGN1 [3], the activity at 90 µM was determined as 236%. In addition, in the test with A549, the viability at 1.1 µM came to 108%, the viability at 10 µM turned out to be 91.7%, the viability at 30 µM worked out at 76.8% and the viability at 90 µM worked out at 4.7%.

Regarding `C[C@H]1Cc2c([nH]c3ccccc23)[C@H](c2ccc([Si](C)(C)C)cc2)N1C(=O)CCl` [LX-412], the viability at 1.1 µM worked out at 0.3% in test [1] (setting [4]) and 4.8% with A549. Moreover, the activity at 30 µM in the test on HMGN1 [2] turned out to be 293%; in the test on HMGN1 [3] it was 327%.

Take `CCN(CC)C1CCN(Cc2cc(C#CCNc3ccccc3)cc(I)c2O)CC1` [LX-910]: in test [1] (setting [4]), the viability at 1.1 µM was 95.6%, the viability at 10 µM came to 68.4% and the viability at 30 µM was 1.1%. Also, the viability at […] in test [1] (setting [5]) was determined as 84.7%. In addition, the activity at 30 µM in the test with HMGN1 [2] was 278%. In addition, the activity at 90 µM with HMGN1 [3] was 238%. For the same compound, in the test with A549, the viability at 1.1 µM is 95.8%, the viability at 10 µM amounted to 76.9%, the viability at 30 µM is 47.5% and the viability at 90 µM came to 2.7%.

As for `CS(=O)(=O)CCNCc1ccc(-c2ccc3ncnc(Nc4ccc(OCc5cccc(F)c5)c(Cl)c4)c3c2)o1` [LX-1607, Lapatinib, reference compound], in test [1] (setting [4]), the viability at 1.1 µM came to 77%, the viability at 10 µM turned out to be 54.3% and the viability at 30 µM is 32.8%. The viability at […] in test [1] (setting [5]) was 68%. Besides, the activity at 30 µM with HMGN1 [2] stood at 238%. The activity at 30 µM in the test on HMGN1 [3] was determined as 311%. In addition, in the test with A549, the viability at 1.1 µM stood at 95.7%, the viability at 10 µM was 62.7% and the viability at 30 µM amounted to 15.1%.

Turning to `Cc1oncc1C(=O)Nc1ccc(C(F)(F)F)cc1` [LX-1603, Leflunomide, reference compound], in test [1] (setting [4]), the viability at 1.1 µM came out at 101%, the viability at 10 µM is 91.1%, the viability at 30 µM came out at 84.3% and the viability at 90 µM is 48.3%. The viability at […] in test [1] (setting [5]) came to 95.6%. Also, the activity at 90 µM in the test with HMGN1 [2] amounted to 168%. Besides, the activity at 90 µM in the test with HMGN1 [3] was 163%. Besides, in the test with A549, the viability at 1.1 µM was 99.6%, the viability at 10 µM amounted to 95.7%, the viability at 30 µM came to 96.5% and the viability at 90 µM worked out at 49.8%.

Turning to `CCC[C@H]1C(=O)C(C#N)C[C@@]2(C)c3nc(-c4cccc5ncccc45)nc(-c4ccccc4F)c3CC[C@H]12` (some centres unmarked) [LX-2503], the viability at 1.1 µM came out at 82.4% in test [1] (setting [4]) and 105% in the test on A549. Moreover, in test [1] (setting [5]), the viability at […] was 25.8%. The activity at 30 µM with HMGN1 [2] was 297%; in the test on HMGN1 [3] it was 285%. Further, the viability at 10 µM in the test on A549 worked out at 31.2%.

Consider `C[C@@H]1C(=O)C(C#N)=C[C@]2(C)C3=CC(=O)[C@@H]4[C@@H]5CC(C)(C)CC[C@]5(c5nnc(CF)o5)CC[C@@]4(C)[C@]3(C)CC[C@@H]12` [LX-2507], for which the viability at 1.1 µM in test [1] (setting [4]) is 46.6%; in the test on A549, 97.5%. Besides, in test [1] (setting [5]), the viability at […] is 38.6%. Also, the activity at 30 µM in the test with HMGN1 [2] came to 267%; with HMGN1 [3] it was 248%. Moreover, the viability at 10 µM with A549 is 35.7%.

With `C=C(CN(C)C)C(=O)c1cc(C)ccc1C` [LX-921], in test [1] (setting [4]), the viability at 1.1 µM came out at 99.6%, the viability at 10 µM worked out at 89.1% and the viability at 30 µM was 15.7%. Further, the viability at […] in test [1] (setting [5]) was determined as 89.2%. Also, the activity at 30 µM with HMGN1 [2] is 311%. Also, the activity at 90 µM in the test with HMGN1 [3] came out at 175%. Besides, in the test on A549, the viability at 1.1 µM amounted to 99.5%, the viability at 10 µM is 91.2%, the viability at 30 µM amounted to 90.9% and the viability at 90 µM was found to be 39.7%.

As to `Cc1onc(C(=O)N2CCN(C(c3ccc(Cl)cc3)c3ccc(OCc4cn(CCOCCOCCNc5cccc6c5C(=O)N(C5CCC(=O)NC5=O)C6=O)nn4)cc3)CC2)c1[N+](=O)[O-]` (centres unmarked) [LX-432, 4-((2-(2-(2-(4-((4-((4-chlorophenyl)(4-(5-methyl-4-nitroisooxazol-3-carbonyl)piperazin-1-yl)methyl)phenoxy)methyl)-1H-1,2,3-triazol-1-yl)ethoxy)ethoxy)ethyl)amino)-2-(2,6-dioxopiperidin-3-yl)isoindolin-1,3-dione], the figures for the viability at 1.1 µM (in test [1] (setting [4]); in the test on A549) were 84.2% and 97.1%, respectively. The “Survival (%)” value in test [1] ([…] test compound) was determined as 23.8%. In addition, the results for the activity at 30 µM with HMGN1 [2] and with HMGN1 [3] were 304% and 270%, respectively.

Consider `Cc1[nH]nc(C(F)(F)F)c1Cc1sc2c(c1C(=O)N1C[C@](C)(O)CO1)c(=O)n(C)c(=O)n2C(C)C` [LX-3203], for which the viability at 1.1 µM in test [1] (setting [4]) is 107%; in the test with A549 it was 105%. In test [1] (setting [5]), the viability at […] amounted to 15.4%. The results for the activity at 30 µM in the test with HMGN1 [2] and in the test with HMGN1 [3] were 315% and 293%, respectively. Also, the viability at 10 µM in the test on A549 came to 21.6%.

As for `CC1(C)C=C2[C@H]3CC[C@@H]4[C@@]5(C)CCC(=O)C(C)(C)[C@@H]5CC[C@@]4(C)[C@]3(C)CC[C@@]2(C(=O)O)CC1` [LX-2007, Moronic acid], in test [1] (setting [4]), the viability at 1.1 µM was 105%, the viability at 10 µM came out at 91.2%, the viability at 30 µM was 83.9% and the viability at 90 µM was determined as 47.2%. Also, the viability at 270 µM in test [1] (Homo sapiens, 72 h, 270 μM test compound, read-out: Survival (%)) is 1.3%. Besides, the viability at […] in test [1] (setting [5]) was found to be 98.9%. The activity at 270 µM with HMGN1 [2] (270 μM test compound) amounted to 255%. Besides, in the test on HMGN1 [3] (test compound 270 μM), the activity at 270 µM came out at 192%. Besides, in the test with A549, the viability at 1.1 µM was 111%, the viability at 10 µM amounted to 96.3%, the viability at 30 µM came out at 87.9% and the viability at 90 µM amounted to 62.8%. Moreover, the viability at 270 µM with A549 (270 μM test compound) was 32.4%.

With `COC(=O)c1ccc([C@@H]2c3ccc(OC)cc3C[C@H](C(=O)OC)N2C(=O)CCl)cc1` [LX-417], the viability at 1.1 µM came to 21.8% in test [1] (setting [4]) and 43.5% in the test with A549. The results for the activity at 30 µM in the test on HMGN1 [2] and with HMGN1 [3] were 294% and 347%, respectively.

`CC/C=C\C/C=C\C/C=C\C/C=C\C/C=C\C/C=C\CCC(=O)O` [LX-2702, Docosahexaenoic acid]: in test [1] (setting [4]), the viability at 1.1 µM amounted to 104%, the viability at 10 µM worked out at 87.4%, the viability at 30 µM came out at 49.6% and the viability at 90 µM is 22.9%. The viability at […] in test [1] (setting [5]) amounted to 99.1%. For the same compound, the activity at 90 µM with HMGN1 [2] is 206%. In the test with HMGN1 [3], the activity at 90 µM was determined as 237%. Further, in the test with A549, the viability at 1.1 µM amounted to 96.7%, the viability at 10 µM was 94.4%, the viability at 30 µM was 55.1% and the viability at 90 µM turned out to be 9.5%.

On to `CCn1c2ccc(CNC)cc2c2ccc(-c3cnoc3)cc21` [LX-903], for which, in test [1] (setting [4]), the viability at 1.1 µM was determined as 104%, the viability at 10 µM was 73.2% and the viability at 30 µM amounted to 5.7%. The viability at […] in test [1] (setting [5]) came out at 89.8%. For the same compound, the activity at 30 µM in the test with HMGN1 [2] worked out at 324%. Besides, the activity at 90 µM in the test with HMGN1 [3] is 239%. For the same compound, in the test on A549, the viability at 1.1 µM is 98.9%, the viability at 10 µM stood at 81.6%, the viability at 30 µM was 42.7% and the viability at 90 µM was 12.3%.

`Cc1cc(-c2ccc(-n3nc(-c4ccccc4F)c4c3[C@]3(C)C=C(C#N)C(=O)[C@H](C)[C@H]3CC4)cc2)cnn1` [LX-2506]: the results for the viability at 1.1 µM (in test [1] (setting [4]); in the test with A549) were 91% and 98.3%, respectively. Further, the viability at […] in test [1] (setting [5]) was 11.8%. The activity at 30 µM with HMGN1 [2] worked out at 279%; in the test on HMGN1 [3], 267%. Further, the viability at 10 µM in the test on A549 was 26.4%.
